{"source": "patent US20040087561A1", "about": "“Treatment of sexual dysfunction” (priority 2000, published 2004)", "assay_type_in_all_cases": "in vivo", "key": {"[1]": {"system": "ovariectomised female Sprague Dawley rats", "assay": "Inhibition of female rat sexual proceptivity by NMB and its antagonism", "conditions": "pre-treatment 15 mg/kg i.p. 1 h before NMB 100 ng i.c.v.; progesterone-treated rats; blockade not total", "description": "Ovariectomised female rats (Sprague Dawley, obtained from Charles River, UK) were stereotaxically implanted (coordinates 0.89 mm behind Bregma, 1.3 mm lateral and 2.5 mm vertical) with stainless steel cannulae (6 mm long, O.D. 0.75 mm), held in place with dental cement. Animals were housed in groups of three and returned to a reversed lighting system of 12 h light:dark (lights off 5.00-17.00 h). Correct placement of the cannulae was assessed post-mortem. Rats were used for tests two weeks after ovariectomy (one week after cannulation). The experiments started at least 5 h into the dark period. Forty eight hours before tests, the animals were primed with 5 μg oestradiol benzoate (OB) (s.c, in corn oil) and adapted to the apparatus (in the absence of stimuli animals) for 10 min on 2 consecutive days prior testing. The 10 min test was carried out as previously described. The difference in the percentage of time spent investigating male minus female was calculated, out of the total time spent investigating stimuli.\nProgesterone (Prog, 0.5 mg/0.1 ml) was dissolved in corn oil and administered subcutaneously (s.c.), 4 h before test, to induce proceptive behaviour. Compound (1) (15 mg/kg, i.p.) was dissolved in 50% 2-hydroxypropyl-β-cyclodextrin in saline and administered 1 h before the i.c.v. administration. Neuromedin B was obtained from Bachem, UK. It was dissolved in isotonic saline and administered i.c.v. over a 30 sec period, with the aid of a pump set to deliver a flow of 10 μl/min, 10 min before tests. The dosing volume was 5 μl/rat. Each rat received a total amount of 100 ng.\nFrom the present study we can conclude that stimulation of BB1 receptors with an agonist results in inhibition of proceptive behaviour. This inhibitory effect may be prevented by the presence of an antagonist. e.g. Compound (1) In FIG. 5 the bars represent percentage of time spent investigating male, minus the percentage of time spent investigating the female stimuli+SEM, (n=8-12 per group). ***P<0.001 vs progesterone (One-way ANOVA followed by Dunnett's test)."}, "conscious male rat": {"system": "conscious male rat", "assay": "Penile intracavernosal pressure in the conscious male rat (telemetry)", "description": "In addition to treating women with FSD, bombesin antagonists will be useful in treating male erectile dysfunction (MED. Both the non-selective BB1/2 antagonists (Compound 1; 10 mg/kg sc) and the selective BB I receptor antagonist (Compound 3; 15 mg/kg sc) is pro-erectile in a conscious rat model of penile erection (FIGS. 24 and 25). Erectile responses were recorded by measuring intracavemosal pressure using surgically implanted telemetric device. The specific details the surgical procedures, data acquisition and analysis can be found in detail in Bernabe 1999.\nCompound 1 and compound 3 were dissolved in 50% O-cyclodextrin in saline. They were administered at a dose of 15 mg/kg subcutaneously (sc). […] These increases equate to penile erection. Both Compounds 1 and 3 induced a number of erections in a similar manner to those observed with apomorphine or melanotan-II—both of which are clinically proven agents that are effective in the treatment of MED. Moreover the amplitude of the increases observed were similar to those observed with apomorphine or melanotan-II. The mechanism of action is thought to be similar to the effects on female genital flow ie CNS potentiation of the descending neuronal pathways that control penile erection."}, "[2]": {"system": "ovariectomised female Sprague Dawley rats", "assay": "Female rat sexual receptivity (lordosis quotient)", "conditions": "Example 2; quinelorane 6.25 μg/kg s.c., 90 min; Compound (1) 10 mg/kg i.p., 1 h", "description": "Ovariectomised adult female Sprague Dawley rats (180-200 g, from Charles River) were housed in groups of 6 in a reversed lighting system of 12 h light:dark (lights off 7.00-19.00 h). Two weeks after ovariectomy they were used for sexual activity tests. The experiments started at least 5 h into the dark period.\nCompound (1) was dissolved in 100% β-cyclodextrin and then diluted with saline to a final solution of 50% 2-hydroxypropyl-β-cyclodextrin. It was administered intraperitoneally (i.p.) at a dose of 10 mg/kg, in a dosing volume of 1 ml/kg. Quinelorane (6.25 μg/kg) was dissolved in water and administered s.c. as positive control. Forty eight hours before testing, ovariectomised female rats (as described above), were primed with 5 μg oestradiol benzoate dissolved in corn oil and injected subcutaneously. […] The females were placed with a series of vigorous male rats and subjected to 10 mounts.\nThe lordotic response of the animal was recorded and expressed as a percentage of the mounts (i.e. lordosis quotient, LQ), as previously described. Animals showing LQ<20 were considered non-receptive and were included in the study. Each rat was tested prior to administration of the compound and then tested similarly post-injection. The pre-treatment times were 1 h for Compound (1) and vehicle (50% β-cyclodextrin, i.p.) or 90 min for quinelorane.\nThe above compound was dissolved in PEG200 vehicle and administered orally. Quinelorane dihydrochloride (LY 163,502, 6.25 μg/kg) was dissolved in water and administered subcutaneously (s.c.), as a positive control. Both compounds were administered in a 1 ml/kg volume.\nForty eight hours before tests, the animals were primed with 5 μg oestradiol benzoate (Sigma Chemical. Co. Ltd., UK) dissolved in corn oil and injected subcutaneously. The females were placed with a series of vigorous male rats and subjected to 10 mounts. The lordotic response of the animal was recorded and expressed as a percentage of the mounts (i.e. lordosis quotient, LQ). […] Animals showing higher LQ were not included in the study. Each rat was tested prior to administration of the compound and then tested similarly at 1 h and 90 min post-injection of the above compound or quinelorane respectively."}}, "data": [{"compound": "COc1ccc(C2(CNC(=O)[C@](C)(Cc3c[nH]c4ccccc34)NC(=O)Nc3ccc([N+](=O)[O-])cc3)CCCCC2)nc1", "note": "[Compound (1), (S) 3-(1H-Indol-3-yl)-N-[1-(5-methoxy-pyridin-2-yl)-cyclohexyl-methyl]-2-methyl-2-[3-(4-nitro-phenyl)-ureido]-propionamide]", "values": [{"measurement": "antagonism of the inhibitory effect of NMB on proceptivity", "setting": "[1]", "value": "prevented the inhibitory effect of NMB"}, {"measurement": "penile erection (erectile response)", "setting": "conscious male rat; Compound 1 10 mg/kg sc, Compound 3 15 mg/kg sc, conscious rat model", "value": "pro-erectile"}, {"measurement": "intracavernosal pressure", "setting": "conscious male rat; one hour after 10 mg/kg sc Compound 1, 45 minutes after 15 mg/kg sc compound 3, conscious rat", "value": "significant increases in intracavernosal pressure"}, {"measurement": "lordosis quotient (LQ) compared to LQ before administration", "setting": "[2]", "value": "significant (P<0.05) stimulatory effect on the LQ"}]}]}
